Read-outs that look alike come from different tables or passages of the source.
Key:
[1] = test system: PC-3 prostate cancer cells; assay: Clonogenic assay (colony growth), PC-3; type: cell-based, human
From the text: (§1) Assays of Rh-123 toxicity were done with three human prostate cancer cell lines, […], et al.: Establishment and characterization of a human prostatic carcinoma cell line, Invest Urol 17:16-23, 1979), DU-145 (Stone […], et al.: Isolation of a human prostatic carcinoma cell line (DU145), Int J Cancer 21:274-281, 1978), and LNCaP (Horoszewitz J, Leong […], et al.: LNCaP model of human prostatic carcinoma, Cancer Res 43:1809-1818, 1983), and a non-tumorigenic diploid prostate fibroblast cell strain (NPF-209) derived in our laboratories from a normal adult prostate. The NPF cells were used as controls, i.e., for comparison. […] Two different in vitro assays were used to assess cell viability following Rh-123 treatment, namely, • i) colony formation by a clonal assay procedure ([…], Ham R G: Clonal growth of human keratinocytes with small amounts of dialyzed serum, In Vitro 16:526-538, 1980); and • ii) viability of cells determined by the MTT assay utilizing previously described techniques (Alley […], Monks A, et al.: Feasibility of drug screening with panels of human tumor cell lines using a microculture tetrazolium assay, Cancer Res 40:589-601, 1988). Clonogenic potential of the treated human prostate cancer cells was determined on 24-hour-old cells seeded in 60 mm disposable dishes (1-2×10^2 cells/dish). […]

[2] = test system: normal human adult prostate fibroblasts (NPF); assay: Clonogenic assay (colony growth), NPF; type: cell-based
From the text: as §1

[3] = test system: autochthonous rat prostate complex adenocarcinoma (ARPCA); assay: Induced autochthonous rat prostate adenocarcinoma in L-W rats; type: in vivo; settings: 15 mg/kg BW s.c. every other day for six doses
Method: To determine the effectiveness of Rh-123 on induced autochthonous rat prostate adenocarcinoma developed within the prostate gland and seminal vesicles of L-W rats, thirteen L-W rats were inoculated intravenously with acidified MNU (30 mg/kg of body weight (BW)). Following the single inoculation of MNU, the rats were each implanted subcutaneously with 50 mg TP sealed in a silastic tube. Three implants of TP were administered, each at intervals of 2 months. After a latent period of 4–6 months, small palpable tumors were detected in the abdomen. The rats were then administered Rh-123 (15 mg/kg BW) subcutaneously every other day for six doses. The Rh-123 was dissolved in a 5% (by volume) ethanol-5% (by weight) glucose solution in sterile water at a concentration of 5 mg/ml. The rats were sacrificed 1 week after the last dose of Rh-123 and their tissues were fixed in 10% formalin.

[4] = test system: transplantable rat prostate tumor R3327-H (Dunning); settings: saline suspension, s.c. every other day, 15 mg/kg body weight; cited from earlier work
[5] = test system: DU-145 prostate cancer cells; assay: MTT cytotoxicity/viability assay, DU-145; type: cell-based, human
From the text: as §1, with “comparison. The cells were maintained in disposable plastic culture vessels in a 1:1 mix of Dulbecco's modified Eagle's medium and Ham's F12 (DMEM/F12, from Sigma Chemical Co, St. Louis, Mo.) supplemented with 10% fetal bovine serum (FBS, from HyClone Labs, Inc., Logan, Utah). 3-[4,5-Dimethylthiazol-2-yl]-2,5-diphenyltetrazolium bromide (MTT), DMSO, and other chemicals were also obtained from Sigma.” for “comparison.”, “Cytotoxicity due to Rh-123 treatment was determined with” for “Clonogenic potential of”, “the” for “the treated”, “grown in 96-well disposable microtiter plates. […] The plates were next read at A540 […] with an Emax precision microplate reader (Molecular Devices Corporation, Menlo Park, Calif.). […] The cell-bound dye is dissolved with DMSO and spectrophotometrically quantitated by absorbance at a wavelength of 540 nm. The OD540 nm reading is a measure of the number of viable” for “was determined on 24-hour-old”, “present” for “seeded”, “the test sample.” for “60 mm disposable dishes (1-2×10^2 cells/dish).”

[6] = test system: PC-3 prostate cancer cells; assay: MTT cytotoxicity/viability assay, PC-3; type: cell-based, human
From the text: as §1, with “comparison. The cells were maintained in disposable plastic culture vessels in a 1:1 mix of Dulbecco's modified Eagle's medium and Ham's F12 (DMEM/F12, from Sigma Chemical Co, St. Louis, Mo.) supplemented with 10% fetal bovine serum (FBS, from HyClone Labs, Inc., Logan, Utah). 3-[4,5-Dimethylthiazol-2-yl]-2,5-diphenyltetrazolium bromide (MTT), DMSO, and other chemicals were also obtained from Sigma.” for “comparison.”, “Cytotoxicity due to Rh-123 treatment was determined with” for “Clonogenic potential of”, “the” for “the treated”, “grown in 96-well disposable microtiter plates. […] The plates were next read at A540 […] with an Emax precision microplate reader (Molecular Devices Corporation, Menlo Park, Calif.). […] The cell-bound dye is dissolved with DMSO and spectrophotometrically quantitated by absorbance at a wavelength of 540 nm. The OD540 nm reading is a measure of the number of viable” for “was determined on 24-hour-old”, “present” for “seeded”, “the test sample.” for “60 mm disposable dishes (1-2×10^2 cells/dish).”

[7] = test system: LNCaP prostate cancer cells; assay: Clonogenic assay (colony growth), LNCaP; type: cell-based, human
From the text: as §1

[8] = test system: NPF non-tumorigenic diploid prostate fibroblast cells; assay: MTT cytotoxicity/viability assay, NPF; type: cell-based, human
From the text: as §1, with “Cytotoxicity due to Rh-123 treatment was determined with” for “Clonogenic potential of”, “the” for “the treated”, “grown in 96-well disposable microtiter plates. […] The OD540 nm reading is a measure of the number of viable” for “was determined on 24-hour-old”, “present” for “seeded”, “the test sample.” for “60 mm disposable dishes (1-2×10^2 cells/dish).”

[9] = test system: LNCaP prostate cancer cells; assay: MTT cytotoxicity/viability assay, LNCaP; type: cell-based, human
From the text: as §1, with “Cytotoxicity due to Rh-123 treatment was determined with” for “Clonogenic potential of”, “the” for “the treated”, “grown in 96-well disposable microtiter plates. […] The OD540 nm reading is a measure of the number of viable” for “was determined on 24-hour-old”, “present” for “seeded”, “the test sample.” for “60 mm disposable dishes (1-2×10^2 cells/dish).”

[10] = test system: DU-145 prostate cancer cells; assay: Clonogenic assay (colony growth), DU-145; type: cell-based, human
From the text: as §1

Swiss Webster mice = type: in vivo; settings: s.c. every other day for 2 weeks
Method: The toxicity of two solvents for Rh-123, DMSO and alcohol-glucose, was studied in 60-day-old Swiss Webster mice (Simonsen Laboratories, Inc., Gilroy, Calif.). For each solvent there were five groups of five mice each, with the Rh-123 dose per group being 0, 2.0, 7.5, 15, and 20 mg/kg of body weight. A sixth group of five mice were not given any solvent or Rh-123. The solvents, with and without Rh-123, were administered at a concentration of 50% by volume DMSO in distilled water, and 5% alcohol by volume in a 5% by weight solution of glucose in distilled water. […] The concentration of Rh-123 was 5 mg/ml. Appropriate controls were utilized. The mice were injected subcutaneously every other day for 2 weeks.

[11] = test system: metastatic hormone-refractory prostate cancer; assay: Phase I study: prostate specific acid phosphatase in blood after a single dose; type: in vivo, human; settings: Patient 4, Level II (24 mg/m^2), single infusion
Method: The FDA has approved human clinical Phase I study of Rh-123. This phase evaluates the toxicity of Rh-123. The objective of the study is to determine safe dosing levels for Rh-123 starting at a level known to be safe for animals (about 0.3 mg/kg, which is equivalent to about 12 mg/m^2 for the typical prostate cancer patent), and proceeding upward in dosage until signs of moderate toxicity are observed. The Phase I study includes 21 volunteer patients with metastatic hormone-refractory prostate cancer to establish toxicity in a single dose escalation schedule. Only one dose per volunteer participant has been approved to date by the FDA, starting at 12 mg/m^2 at level I (three participants per level), and increasing in subsequent levels until dose-limiting toxicity is observed. Using a solution of four milligrams of Rh-123 per milliliter of a solution which includes 5% alcohol and 5% glucose in distilled water, the FDA has approved the dose escalation schedule shown in Table I: [table] As of the date of this application for patent, seven patients have been treated in accordance with the protocol described above.

[12] = test system: transplantable tumor P-A III; settings: cited from earlier work

With COC(=O)c1ccccc1-c1c2ccc(=N)cc-2oc2cc(N)ccc12.Cl [Rh-123, methyl o-(6-amino-3-imino-3H-xanthen-9-yl) benzoate monohydrochloride] the “suppression of colony growth” value ([1]; PC-3, 10 μg/ml for 72 hours) was “Complete suppression”, the colony growth ([1]; PC-3, exposure to 10 μg/ml) was “greatly suppressed” and the “maximal suppression of colony growth” value ([2]; 72-hour exposure) was 28 % of control. For the same compound, the “suppression of colony growth” value ([2]; 72-hour exposure to 50 μg/ml (data not shown)) was “Total suppression was not achieved”, the “effect on normal surrounding tissue” value [3] was “no change” and the “gross changes in the tumor mass of the prostate complex” value [3] was “No gross changes”. The “microscopic examination of tumor tissue of prostate complex” value ([3]; sacrificed 1 week after last dose) was “marked cellular and acinar destruction, pyknosis, cytoplasmic smearing, and intraepithelial cyst formation”, the “effect on tumor (histology)” value [4] was “significant destructive alteration of the acinar cells” and the “recovery of treated cells in Rh-123-free normal growth medium” value ([5]; DU-145) was “poor”. The “relative sensitivity to Rh-123 exposure among the cancer cell lines” value ([5]; DU-145) was “more refractory than either the PC-3 or the LNCaP cells”, the “loss of viable cells” value ([5]; DU-145, exposed 2 days or longer, concentrations as low as 1.25–2 μg/ml) was “marked” and the “recovery of treated cells in Rh-123-free normal growth medium” value ([6]; PC-3) was “poor”. For the same compound, the “relative sensitivity to Rh-123 exposure among the cancer cell lines” value ([6]; PC-3) was “most sensitive”, the “loss of viable cells” value ([6]; PC-3, exposed 2 days or longer, concentrations as low as 1.25–2 μg/ml) was “marked” and the “suppression of colony growth” value ([7]; 10 μg/ml for 72 hours) was “Complete suppression”. For the same compound, the colony growth ([7]; exposure to 10 μg/ml) was “greatly suppressed”, the “growth inhibition due to Rh-123 treatment” value ([8]; 0–80 μg/ml, FIG. 5) was “much less than that observed with tumorigenic cells” and the viability of cells ([8]; after prolonged Rh-123 exposures) was “remained relatively high”. For the same compound, the “recovery of treated cells in Rh-123-free normal growth medium” value [9] was “poor”, the “loss of viable cells” value ([9]; exposed 2 days or longer, concentrations as low as 1.25–2 μg/ml) was “marked” and the “suppression of colony growth” value ([10]; DU-145, 10 μg/ml for 72 hours) was “Complete suppression”. The “growth suppression (colony growth)” value ([10]; DU-145, compared with PC-3 and LNCaP) was “less marked”, the mortality (Swiss Webster mice; 15 mg/kg Rh-123 in 50% DMSO, group of five mice) was “one of five mice died” and the mortality (Swiss Webster mice; 20 mg/kg Rh-123 in 50% DMSO, group of five mice) was “Three of five mice died”. The mortality (Swiss Webster mice; 20 mg/kg Rh-123 in alcohol-glucose solution) was “no mortality”, the “course of prostate specific acid phosphatase in blood after 48 hours” value [11] was “steadily decreased until two months after the infusion” and the “effect on tumor cells” value ([12]; Rh-123 dissolved in DMSO) was “significant destruction of tumor cells”. The “sensitivity of tumor to Rh-123” value ([12]; Rh-123 dissolved in DMSO) was “highly sensitive”, the “toxicity in normal cells” value ([12]; rat, in vivo) was “no toxicity noted” and the “tumor growth after injection of tumor remnants into untreated susceptible L-W rats” value ([12]; remnants of Rh-123-treated tumor) was “no tumor growth”.

From patent US7008961B1, “Composition and method for treating carcinoma” (priority 1995, dated 2006)
